Measured values reported in PubChem BioAssay AID1963984 (Molecular Pharmacology Branch, DTP, NCI, 2024).
pIC50: −log10 of the molar value.

Test system: 233499-124-R-J3-PDC spheroids with HUVEC/MSC, viability
Experiment: Anticancer human tumor 233499-124-R-J3-PDC patient-derived colon adenocarcinoma cell line growth inhibition [PI3K]
Settings: for pIC50: curve of first compound; for viability, T/C: stronger effect = lower value
Procedure, shortened: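 Stroma-containing spheroids: tumor line, pooled-donor HUVEC, hMSC. Treatments: targeted agents with PI3K inhibitors. Dosing: clinically relevant, half-log spacing, 10 microM ceiling without known Cmax. Read-out: cell viability.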
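Note: spheroids exposed to agents for seven days before readout.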
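Throughout, for viability, T/C: percent viability relative to DMSO vehicle control taken as 100%.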

Compound CNC(=O)c1ccc(N2C(=S)N(c3ccc(C#N)c(C(F)(F)F)c3)C(=O)C2(C)C)cc1F + Cc1nc(NC(=O)N2CCCC2C(N)=O)sc1-c1ccnc(C(C)(C)C(F)(F)F)c1 has a pIC50 (second compound 0.0316 µM) of 5.01, a pIC50 (second compound 0.1 µM) of less than 5.00 and a pIC50 (second compound 0.316 µM) of less than 5.00. For the same compound, the pIC50 (second compound 1 µM) was less than 5.00, the pIC50 (second compound 3.16 µM) was 5.34 and the pIC50 (second compound 10 µM) was greater than 7.50. The viability, T/C (second compound 0.0316 µM, first compound 0.0316 µM) was 101%, the viability, T/C (second compound 0.0316 µM, first compound 0.1 µM) was 107% and the viability, T/C (second compound 0.0316 µM, first compound 0.316 µM) was 80.8%. It also gave a viability, T/C (second compound 0.0316 µM, first compound 1 µM) of 100%, a viability, T/C (second compound 0.0316 µM, first compound 3.16 µM) of 102% and a viability, T/C (second compound 0.0316 µM, first compound 10 µM) of 49.1%. It also gave a viability, T/C (second compound 0.1 µM, first compound 0.0316 µM) of 111%, a viability, T/C (second compound 0.1 µM, first compound 0.1 µM) of 72.8% and a viability, T/C (second compound 0.1 µM, first compound 0.316 µM) of 66%. It also gave a viability, T/C (second compound 0.1 µM, first compound 1 µM) of 84.1%, a viability, T/C (second compound 0.1 µM, first compound 3.16 µM) of 85.9% and a viability, T/C (second compound 0.1 µM, first compound 10 µM) of 73.2%. It also gave a viability, T/C (second compound 0.316 µM, first compound 0.0316 µM) of 95.8%, a viability, T/C (second compound 0.316 µM, first compound 0.1 µM) of 100% and a viability, T/C (second compound 0.316 µM, first compound 0.316 µM) of 70.6%. The viability, T/C (second compound 0.316 µM, first compound 1 µM) was 88.3%, the viability, T/C (second compound 0.316 µM, first compound 3.16 µM) was 85.9% and the viability, T/C (second compound 0.316 µM, first compound 10 µM) was 56.2%. The viability, T/C (second compound 1 µM, first compound 0.0316 µM) was 105%, the viability, T/C (second compound 1 µM, first compound 0.1 µM) was 70.3% and the viability, T/C (second compound 1 µM, first compound 0.316 µM) was 78.9%. The viability, T/C (second compound 1 µM, first compound 1 µM) was 61.5%, the viability, T/C (second compound 1 µM, first compound 3.16 µM) was 60.5% and the viability, T/C (second compound 1 µM, first compound 10 µM) was 51.3%. It also gave a viability, T/C (second compound 3.16 µM, first compound 0.0316 µM) of 59.1%, a viability, T/C (second compound 3.16 µM, first compound 0.1 µM) of 51.1% and a viability, T/C (second compound 3.16 µM, first compound 0.316 µM) of 61.2%. It also gave a viability, T/C (second compound 3.16 µM, first compound 1 µM) of 54.5%, a viability, T/C (second compound 3.16 µM, first compound 3.16 µM) of 57% and a viability, T/C (second compound 3.16 µM, first compound 10 µM) of 37%. It also gave a viability, T/C (second compound 10 µM, first compound 0.0316 µM) of 24%, a viability, T/C (second compound 10 µM, first compound 0.1 µM) of 34.6% and a viability, T/C (second compound 10 µM, first compound 0.316 µM) of 28.1%. For the same compound, the viability, T/C (second compound 10 µM, first compound 1 µM) was 31.8%, the viability, T/C (second compound 10 µM, first compound 3.16 µM) was 29.3% and the viability, T/C (second compound 10 µM, first compound 10 µM) was 19.6%.

Cn1cnc2c(F)c(Nc3ccc(Br)cc3Cl)c(C(=O)NOCCO)cc21 + Cc1nc(NC(=O)N2CCCC2C(N)=O)sc1-c1ccnc(C(C)(C)C(F)(F)F)c1 showed a pIC50 (second compound 0.0316 µM) of 6.70, a pIC50 (second compound 0.1 µM) of 7.06 and a pIC50 (second compound 0.316 µM) of 7.06. The pIC50 (second compound 1 µM) was 7.60, the pIC50 (second compound 3.16 µM) was greater than 8.02 and the pIC50 (second compound 10 µM) was greater than 8.02. The viability, T/C (second compound 0.0316 µM, first compound 0.00949 µM) was 88.1%, the viability, T/C (second compound 0.0316 µM, first compound 0.03 µM) was 84.8% and the viability, T/C (second compound 0.0316 µM, first compound 0.0949 µM) was 57%. It also gave a viability, T/C (second compound 0.0316 µM, first compound 0.3 µM) of 47.3%, a viability, T/C (second compound 0.0316 µM, first compound 0.949 µM) of 52% and a viability, T/C (second compound 0.0316 µM, first compound 3 µM) of 37.3%. The viability, T/C (second compound 0.1 µM, first compound 0.00949 µM) was 86.8%, the viability, T/C (second compound 0.1 µM, first compound 0.03 µM) was 68% and the viability, T/C (second compound 0.1 µM, first compound 0.0949 µM) was 39%. The viability, T/C (second compound 0.1 µM, first compound 0.3 µM) was 45.9%, the viability, T/C (second compound 0.1 µM, first compound 0.949 µM) was 28.4% and the viability, T/C (second compound 0.1 µM, first compound 3 µM) was 20.2%. The viability, T/C (second compound 0.316 µM, first compound 0.00949 µM) was 64.2%, the viability, T/C (second compound 0.316 µM, first compound 0.03 µM) was 63.5% and the viability, T/C (second compound 0.316 µM, first compound 0.0949 µM) was 35.1%. For the same compound, the viability, T/C (second compound 0.316 µM, first compound 0.3 µM) was 57.2%, the viability, T/C (second compound 0.316 µM, first compound 0.949 µM) was 30.3% and the viability, T/C (second compound 0.316 µM, first compound 3 µM) was 32.6%. For the same compound, the viability, T/C (second compound 1 µM, first compound 0.00949 µM) was 88.5%, the viability, T/C (second compound 1 µM, first compound 0.03 µM) was 39.5% and the viability, T/C (second compound 1 µM, first compound 0.0949 µM) was 36.1%. It also gave a viability, T/C (second compound 1 µM, first compound 0.3 µM) of 27.8%, a viability, T/C (second compound 1 µM, first compound 0.949 µM) of 29.1% and a viability, T/C (second compound 1 µM, first compound 3 µM) of 19.6%. It also gave a viability, T/C (second compound 3.16 µM, first compound 0.00949 µM) of 32.8%, a viability, T/C (second compound 3.16 µM, first compound 0.03 µM) of 34% and a viability, T/C (second compound 3.16 µM, first compound 0.0949 µM) of 24.2%. It also gave a viability, T/C (second compound 3.16 µM, first compound 0.3 µM) of 11.5%, a viability, T/C (second compound 3.16 µM, first compound 0.949 µM) of 15.7% and a viability, T/C (second compound 3.16 µM, first compound 3 µM) of 8.72%. It also gave a viability, T/C (second compound 10 µM, first compound 0.00949 µM) of 22.3%, a viability, T/C (second compound 10 µM, first compound 0.03 µM) of 19.2% and a viability, T/C (second compound 10 µM, first compound 0.0949 µM) of 8.64%. It also gave a viability, T/C (second compound 10 µM, first compound 0.3 µM) of 5.65%, a viability, T/C (second compound 10 µM, first compound 0.949 µM) of 7.32% and a viability, T/C (second compound 10 µM, first compound 3 µM) of 7.06%.
